Reference: patent US9051342B2 (priority 2004, dated 2015)

Compound | melting point [°C]
O=C(O)c1ccc(-c2cnn(-c3cccc(OC(F)(F)F)c3)c2)cc1 [Compound 224, 4-[1-(3-Trifluoromethoxy-phenyl)-1H-pyrazol-4-yl]-benzoic acid] | 230 to 231
O=C(O)c1cccc(-c2ncn(-c3ccc(-c4ccccc4)cc3)n2)c1 [Compound 24, 3-(1-Biphenyl-4-yl-1H-[1,2,4]triazol-3-yl)-benzoic acid] | 263 to 265
Cc1cccc(-n2cnc(-c3cccc(C(=O)O)c3)n2)c1 [Compound 39, 3-(1-m-Tolyl-1H-[1,2,4]triazol-3-yl)-benzoic acid] | 223 to 225
CC(C)c1ccc(-c2nn(Cc3ccc(C(=O)O)cc3)c(=O)o2)cc1 [Compound 278, 4-{[5-(4-isopropylphenyl)-2-oxo-1,3,4-oxadiazol-3(2H)-yl]methyl}benzoic acid] | 217 to 219
O=C(O)c1cccc(-c2ccn(-c3cccc(C(=O)O)c3)n2)c1 [Compound 69, 1,3-Bis(3-carboxyphenyl)-1H-pyrazole] | > 300
CC(C)c1ccc(-n2nc(-c3ccc(C(=O)O)cc3)oc2=O)cc1 [Compound 276, 4-[4-(4-Isopropyl-phenyl)-5-oxo-4,5-dihydro-[1,3,4]oxadiazol-2-yl]-benzoic acid] | 263 to 267
COc1cccc(-n2cc(-c3cccc(C(=O)O)c3)cn2)c1 [Compound 174, 3-[1-(3-Methoxy-phenyl)-1H-pyrazol-4-yl]-benzoic acid] | 156 to 157
O=C(O)c1cccc(-c2ncn(-c3ccc(N4CCC4=O)cc3)n2)c1 [Compound 44, 3-{1-[4-(2-Oxo-azetidin-1-yl)-phenyl]-1H-[1,2,4]triazol-3-yl}-benzoic acid] | 295 to 297
COc1ccc2c(c1)CCc1cn(-c3cccc(C(=O)O)c3)nc1-2 [Compound 142, 3-(7-Methoxy-4,5-dihydro-benzo[g]indazol-2-yl)-benzoic acid] | 217 to 218
Cc1ccc(-n2ccc(-c3cccc(C(=O)O)c3)c2)cc1F [Compound 241, 3-[1-(3-Fluoro-4-methyl-phenyl)-1H-pyrrol-3-yl]-benzoic acid] | 205 to 208
O=C(O)c1cccc(-c2ccn(-c3ccccc3F)n2)c1 [Compound 86, 3-[1-(2-Fluoro-phenyl)-1H-pyrazol-3-yl]-benzoic acid] | 157 to 158
O=C(O)c1cccc(-n2cc3c(n2)Cc2ccccc2-3)c1 [Compound 146, 3-(8H-Indeno[2,1-c]pyrazol-2-yl)-benzoic acid] | 246 to 248
O=C(O)c1cccc(-c2cnn(-c3ccc4c(c3)OCCO4)c2)c1 [Compound 225, 3-[1-(2,3-Dihydro-benzo[1,4]dioxin-6-yl)-1H-pyrazol-4-yl]-benzoic acid] | 201 to 203
COc1ccc(-c2cn(-c3ccc(C(=O)O)cc3)nn2)cc1OC [Compound 272, 4-[4-(3,4-Dimethoxy-phenyl)-[1,2,3]triazol-1-yl]-benzoic acid] | 253 to 254
O=C(O)c1cccc(-n2cnc(-c3ccc(OCc4ccccc4)cc3)n2)c1 [Compound 10, 3-[3-(4-Benzyloxy-phenyl)-[1,2,4]triazol-1-yl]-benzoic acid] | 259 to 261
COc1ccccc1-n1ccc(-c2cccc(C(=O)O)c2)c1 [Compound 200, 3-[1-(2-Methoxy-phenyl)-1H-pyrrol-3-yl]-benzoic acid] | > 350
COc1cccc(-c2cnn(-c3ccc(C(=O)O)cc3)c2)c1 [Compound 109, 4-[4-(3-Methoxy-phenyl)-pyrazol-1-yl]-benzoic acid] | 222 to 223
Cc1ccc(-c2cnn(-c3ccc(C(=O)O)cc3)c2)cc1 [Compound 51, 4-(4-p-Tolyl-pyrazol-1-yl)-benzoic acid] | 298 to 299

Compound | melting point [°C]
Cc1ccc(-n2cc(-c3ccc(C(=O)O)cc3)cn2)cc1 [Compound 178, 4-(1-p-Tolyl-1H-pyrazol-4-yl)-benzoic acid] | 280 to 282
Cc1cccc(-n2ccc(-c3ccc(C(=O)O)cc3)c2)c1 [Compound 194, 4-(1-m-Tolyl-1H-pyrrol-3-yl)-benzoic acid] | 212 to 213
N#Cc1cccc(-c2ccn(-c3ccc(C(F)(F)F)cc3)n2)c1 [Compound 62, 3-[1-(4-Trifluoromethyl-phenyl)-1H-pyrazol-3-yl]-benzonitrile] | 70 to 74
O=C(O)c1ccc(-c2ccn(-c3ccc(F)c(F)c3)c2)cc1 [Compound 127, 4-[1-(3,4-Difluoro-phenyl)-1H-pyrrol-3-yl]-benzoic acid] | 231 to 233
O=C(O)c1cccc(-n2cc(-c3ccccn3)cn2)c1 [Compound 113, 3-(4-Pyridin-2-yl-pyrazol-1-yl)-benzoic acid] | 243 to 245
CC(C)c1ccc(-c2cn(-c3ccc(C(=O)O)cc3)nn2)cc1 [Compound 275, 4-[4-(4-Isopropyl-phenyl)-[1,2,3]triazol-1-yl]-benzoic acid] | 311 to 312
O=C(O)c1cccc(-n2ccc(-c3ccc(Cl)cc3)n2)c1 [Compound 80, 3-[3-(4-Chloro-phenyl)-pyrazol-1-yl]-benzoic acid] | 230 to 235
O=C(O)c1ccc(-n2cc(-c3cccc4ccccc34)nn2)cc1 [Compound 271, 4-(4-Naphthalen-1-yl-[1,2,3]triazol-1-yl)-benzoic acid] | 265 to 266
COc1ccc2c(c1)-c1cnn(-c3cccc(C(=O)O)c3)c1CC2 [Compound 254, 3-(8-Methoxy-4,5-dihydro-benzo[e]indazol-3-yl)-benzoic acid] | 269 to 271
O=C(O)c1cccc(-n2ccc(-c3ccccc3)n2)c1 [Compound 79, 3-(3-Phenyl-pyrazol-1-yl)-benzoic acid] | 180 to 182
O=C(O)c1ccc(-c2ccn(-c3ccc4[nH]ccc4c3)n2)cc1 [Compound 257, 4-[1-(1H-Indol-5-yl)-1H-pyrazol-3-yl]-benzoic acid] | 281 to 282
COc1ccc(-n2ccc(-c3ccc(C(=O)O)cc3)n2)cc1 [Compound 217, 4-[1-(4-Methoxy-phenyl)-1H-pyrazol-3-yl]-benzoic acid] | 252 to 253
COc1cccc2c1Cc1cn(-c3ccc(C(=O)O)cc3)nc1-2 [Compound 187, 4-(5-Methoxy-4H-indeno[1,2-c]pyrazol-2-yl)-benzoic acid] | 311 to 313
COc1ccc(-n2cnc(-c3cccc(C(=O)O)c3)n2)cc1 [Compound 12, 3-[1-(4-Methoxy-phenyl)-1H-[1,2,4]triazol-3-yl]-benzoic acid] | 230 to 232
O=C(O)c1ccc(-n2cc(-c3cccc(OC(F)(F)F)c3)cn2)cc1 [Compound 208, 4-[4-(3-Trifluoromethoxy-phenyl)-pyrazol-1-yl]-benzoic acid] | 225 to 227
O=C(O)c1cccc(-n2cnc(-c3ccccc3)n2)c1 [Compound 8, 3-(3-Phenyl-[1,2,4]triazol-1-yl)-benzoic acid] | 268 to 271
O=C(O)c1cccc(-c2cnn(-c3ccc4c(c3)OCO4)c2)c1 [Compound 239, 3-(1-Benzo[1,3]dioxol-5-yl-1H-pyrazol-4-yl)-benzoic acid] | 221 to 223
